Data as given in patent US9320271B2, “Microbial composition” (Rohm and Haas Company, priority 2011, dated 2016).

Assays:
[1] = tested on: Staphylococcus aureus (10788 strain); test: 15 second contact kill test / antimicrobial efficacy of actives against S. aureus in water; format: cell-based; settings: 0.1% 3 isopropyl 6 methyl catechol (IPMC) alone
Experimental: Selected materials were also tested against a representative Grant positive Staphylococcus aureus. An overnight culture of Staphylococcus aureus (10788 strain) was inoculated onto a […] Soy Agar (TSA) plate and grown for ca. 18 hrs at 37° C. The culture S. aureus was washed from the plate using sterile saline (0.85% NaCl) solution and a sterile spreader and suspended in 50 ml saline. This suspension was separated into equal volumes and centrifuged at 4000 rpm for 15 minutes. […] Here, OD620 indicates the absorbance of a sample in a cuvette of 1.0 cm path length at a wavelength of 620 nm. This bacterial stock was used for assaying against antimicrobial actives (in triplicate). The following assay describes the testing of 8 materials using 6 dilutions across half of a 96-well micro titre plate (MTP). Using this approach it is possible to assay 16 actives (without replicates) with one full dilution plate, replicating this set up in two halves of the plate columns, 1-6 and 7-12. 1M solutions of the test actives were prepared in dimethylsulphoxide (DMSO). […] Aliquots (270 μl) of the materials at 1.11 times the final concentration were dispensed into the wells of the MTP along one column (A1-H1). This MTP was labelled as the “Screening plate”. In another MTP, labelled as the “Dilution plate”, […] of D/E neutralising solution from DIFCO Composition was added to column 1. The composition of the neutralising solution was as follows: pancreatic digest of casein, 5.0 g/L; […] Dextrose, 10 g/L, sodium thioglycollate, 1.0 g/L, sodium thiosulphate, 6.0 g/L; sodium bisulphite, 2.5 g/L; […] […] From the colony number in this segment, NMBS is calculated by the formula: NMBS=log {Ncol·10^DF·100/3} Here, Ncol is the colony count, and DF is the dilution factor taken from the MTP-well corresponding to the TSA plate segment (i.e. DF may range from 1 for the quench, to 6 for the highest dilution). […] Here, OD620 indicates the absorbance of a sample in a cuvette of 1.0 cm path length at a wavelength, of 620 nm. […]

[2] = tested on: Escherichia coli (E. coli—ATCC #10536); test: Automated assessment of efficacy in surfactant base (2.85% sodium cocoyl glycinate and 1.85% sodium lauroamphoacetate, pH 10.0), 15 seconds exposure; format: cell-based; settings: for No. of replicates showing growth (out of 4) / Δ OD 450 nm = OD450 (time = 16 hours) − OD450 (time zero), Mean / Δ OD 590 nm OD590 (time = 16 hours) − OD590 (time zero), Mean: alone, model surfactant solution
Experimental: Test Methodology for Automated Assessment of Efficacy in Surfactant Base Microbiocidal Activity of Actives as Per the Invention in a Model Surfactant Medium Test Methodology for Automated Assessment of Efficacy in Surfactant Base In these examples, the efficacy of combinations of actives were tested in a surfactant cleansing formulation comprising 2.85% sodium cocoyl glycinate and 1.85% sodium lauroamphoacetate. This corresponds to a 50% in use dilution with water of a neat formulation containing 5.7% cocoyl glycinate and […] % sodium, lauroamphoacetate during hand washing. Solutions were prepared such that the concentrations of the surfactant components and test actives were 1.1× the final desired concentration in order to allow for dilution with the bacterial inoculum in the test. The solutions were manually adjusted to pH 10.0 by dropwise addition of sodium hydroxide solution, as measured with a pH meter at ambient temperature. The efficacy of the combinations of the present invention was determined against Escherichia coli (E. coli—ATCC #10536), at a concentration of approximately 1×10^8 bacteria per mL. Tests were conducted using standard microtiter plate assays using an automated liquid handling system. 270 μl of the surfactant test solution was pipetted into each well of the microtitre plate and 30 μl of the bacterial suspension was then added. Alter exactly 15 seconds of bacterial exposure, a 30 μl volume of bacterial cells was withdrawn and transferred to 270 μl of D/E quench solution. After 5 minutes in the D/E quench, the optical density (OD) was measured for each plate in turn at two specific wavelengths (450 nm and 590 nm). These provide a dual check of antimicrobial activity, as the OD450 reading is specific for the yellow colour of D/E quench when bacterial growth is observed, whereas OD590 is specific for the initial purple colour of the D/E quench which is retained if no bacterial growth is observed. After the time zero OD measurements, plates were then incubated at 37° C. overnight (16 hours) before repeating the OD measurements. Delta OD values were calculated by subtracting […]. Bacterial growth is observed as an increase in OD450 and a decrease in ΔOD590. To identify antibacterially efficacious systems (those preventing appreciable bacterial growth after incubation), the following threshold changes in OD readings have been adopted: if (1). OD450 increases by less than 0.2 absorbance unit on incubation and (2). OD590 decreases by less than 0.35 unit on incubation. Conversely, where OD450 increases by more than 0.2 AU and OD590 decreases by more than 0.35 unit after incubation, corresponding to a colour shift from purple to yellow, the test system allows bacterial growth and is not deemed efficacious. Four replicate measurements in the same plate have been made for each test system. The number of replicate wells showing either bacterial growth or no growth is also readily assessed by eye by following the colour change. Dose responses for individual components and binary mixtures of actives at a fixed concentration ratio were generated by sequential dilution of liquors with further surfactant solution to obtain a series of endpoints. […] In some selected cases, the combinations were also tested at the weight ratio 1:1.

Which results are given for `Cc1ccc(C(C)C)c(O)c1O` [3-isopropyl-6-methylbenzene-1,2-diol]?
S. aureus 6538 Log Reduction [1]: −0.07; No. of replicates showing growth (out of 4) ([2]; 0.175% w/v): 4; Δ OD 450 nm = OD450 (time = 16 hours) − OD450 (time zero), Mean ([2]; 0.175% w/v): −0.51; Δ OD 590 nm OD590 (time = 16 hours) − OD590 (time zero), Mean ([2]; 0.175% w/v): 0.53; No. of replicates showing growth (out of 4) ([2]; 0.2% w/v): 4; Δ OD 450 nm = OD450 (time = 16 hours) − OD450 (time zero), Mean ([2]; 0.2% w/v): −0.53; Δ OD 590 nm OD590 (time = 16 hours) − OD590 (time zero), Mean ([2]; 0.2% w/v): 0.53; No. of replicates showing growth (out of 4) ([2]; […] w/v): 4; Δ OD 450 nm = OD450 (time = 16 hours) − OD450 (time zero), Mean ([2]; […] w/v): −0.50; Δ OD 590 nm OD590 (time = 16 hours) − OD590 (time zero), Mean ([2]; […] w/v): 0.56; MBC (minimum biocidal concentration) ([2]; in 2.85% sodium cocoyl glycinate + 1.85% sodium lauroamphoacetate solution at pH 10, E. coli): >0.2 % w/v
